# Tested on: patients with metastases to the skeleton from breast or prostate cancer
# Assay: Phase IA/IB trials of ^223Ra, single and repeated injection, safety and tolerance (Example 9)
# Type: in vivo, humans
# Experimental: The experiment of Example 8 was carried out with dose metering calibrated to a high accuracy. Dose levels measured at 46, 93, 163, 213, and 250 kBq/kg of ^223Ra were given as single doses and a multiple-dose schedule was also introduced.
# Thirty-one patients with metastases to the skeleton, 10 from breast- and 21 from prostate cancer, all, were enrolled in phase IA and phase IB trials. The prostate cancer patients were from 60 to 85 years and had body weights ranging from 50 to 120 kg. All of them had progressive disease considered hormone refractory. The breast cancer patients were from 40 to 70 years, with bodyweight from 50 to 95 kg. All of them were progressing second hormonal and/or chemotherapy. The primary objective was to evaluate the safety and tolerance of ^223Ra.
# The follow up period was 8 weeks.
# In the single injection trial the following average dose levels were used; 46, 93, 163, 213, and 250-kBq kg^−1 bodyweight (b.w.). Five patients were included at each dose level. Fifteen prostate- and 10 breast cancer patients were included.
# In the repeated injection schedule, 6 patients, all with prostate cancer, were included. Three patients were scheduled to receive 5 doses, each of 50 kBq kg^−1 b.w. at three-weeks intervals, and three patients to receive 2 doses, each of 125 kBq kg−1 b.w. at six-weeks intervals.
# Radium-223 was produced from ^227Ac/^227Th and purified using Ac-resin to immobilize ^227Ac and ^227Th as described in WO0040275. The product concentrate, i.e., dissolved ^223RaCl2 was tested for radionuclide purity by gamma spectroscopy before further use. A concentrate of the ^223Ra in NaCl and Na Citrate was sent sterile production. Isotonicity, pH, and activity concentration were adjusted; a sample kept aside for pathogen and pyrogen testing, and the final product was filled in sterile vials that were subsequently capped with a sealed rubber membrane penetrable to syringes. The vials were put into lead containers and shipped to the hospitals.
# The effect of the radium-223 on neutrophil cell fractions, platelets, white-blood-cell count and Heamoglobin were monitored to give a wide ranging measure of haematological toxicity. […] The results were expressed as the number of patients in the study showing a particular level of toxicity on the CTC Toxicity Grade scale and are set out in Table 6 below.
# [1] = Multiple dosing 2 × 125 kBq/kg, n = 3
# [2] = Multiple dosing 5 × 50 kBq/kg, n = 3
compound,measurement,setting,value
"[223Ra] [^223Ra, radium-223]","Haemoglobin, CTC Grade 0: number of patients",[1],0
same,"Haemoglobin, CTC Grade 1: number of patients",[1],1
same,"Haemoglobin, CTC Grade 2: number of patients",[1],2
same,"Neutrophile, CTC Grade 0: number of patients",[1],3
same,"Neutrophile, CTC Grade 1: number of patients",[1],0
same,"Neutrophile, CTC Grade 2: number of patients",[1],0
same,"Neutrophile, CTC Grade 3: number of patients",[1],0
same,"Platelets, CTC Grade 0: number of patients",[1],3
same,"Platelets, CTC Grade 1: number of patients",[1],0
same,"W B C, CTC Grade 0: number of patients",[1],2
same,"W B C, CTC Grade 1: number of patients",[1],0
same,"W B C, CTC Grade 2: number of patients",[1],1
same,"W B C, CTC Grade 3: number of patients",[1],0
same,"Haemoglobin, CTC Grade 0: number of patients",[2],0
same,"Haemoglobin, CTC Grade 1: number of patients",[2],2
same,"Haemoglobin, CTC Grade 2: number of patients",[2],1
same,"Neutrophile, CTC Grade 0: number of patients",[2],1
same,"Neutrophile, CTC Grade 1: number of patients",[2],0
same,"Neutrophile, CTC Grade 2: number of patients",[2],2
same,"Neutrophile, CTC Grade 3: number of patients",[2],0
same,"Platelets, CTC Grade 0: number of patients",[2],2
same,"Platelets, CTC Grade 1: number of patients",[2],1
same,"W B C, CTC Grade 0: number of patients",[2],1
same,"W B C, CTC Grade 1: number of patients",[2],0
same,"W B C, CTC Grade 2: number of patients",[2],2
same,"W B C, CTC Grade 3: number of patients",[2],0
same,"Haemoglobin, CTC Grade 0: number of patients","Re-treatment, n = 2",1
same,"Haemoglobin, CTC Grade 1: number of patients","Re-treatment, n = 2",1
same,"Haemoglobin, CTC Grade 2: number of patients","Re-treatment, n = 2",0
same,"Neutrophile, CTC Grade 0: number of patients","Re-treatment, n = 2",2
same,"Neutrophile, CTC Grade 1: number of patients","Re-treatment, n = 2",0
same,"Neutrophile, CTC Grade 2: number of patients","Re-treatment, n = 2",0
same,"Neutrophile, CTC Grade 3: number of patients","Re-treatment, n = 2",0
same,"Platelets, CTC Grade 0: number of patients","Re-treatment, n = 2",2
same,"Platelets, CTC Grade 1: number of patients","Re-treatment, n = 2",0
same,"W B C, CTC Grade 0: number of patients","Re-treatment, n = 2",2
same,"W B C, CTC Grade 1: number of patients","Re-treatment, n = 2",0
same,"W B C, CTC Grade 2: number of patients","Re-treatment, n = 2",0
same,"W B C, CTC Grade 3: number of patients","Re-treatment, n = 2",0
same,"Haemoglobin, CTC Grade 0: number of patients","Single dose 46 kBq/kg, n = 5",4
same,"Haemoglobin, CTC Grade 1: number of patients","Single dose 46 kBq/kg, n = 5",0
same,"Haemoglobin, CTC Grade 2: number of patients","Single dose 46 kBq/kg, n = 5",1
same,"Neutrophile, CTC Grade 0: number of patients","Single dose 46 kBq/kg, n = 5",4
same,"Neutrophile, CTC Grade 1: number of patients","Single dose 46 kBq/kg, n = 5",0
same,"Neutrophile, CTC Grade 2: number of patients","Single dose 46 kBq/kg, n = 5",1
same,"Neutrophile, CTC Grade 3: number of patients","Single dose 46 kBq/kg, n = 5",0
same,"Platelets, CTC Grade 0: number of patients","Single dose 46 kBq/kg, n = 5",5
same,"Platelets, CTC Grade 1: number of patients","Single dose 46 kBq/kg, n = 5",0
same,"W B C, CTC Grade 0: number of patients","Single dose 46 kBq/kg, n = 5",4
same,"W B C, CTC Grade 1: number of patients","Single dose 46 kBq/kg, n = 5",0
same,"W B C, CTC Grade 2: number of patients","Single dose 46 kBq/kg, n = 5",1
same,"W B C, CTC Grade 3: number of patients","Single dose 46 kBq/kg, n = 5",0
same,"Haemoglobin, CTC Grade 0: number of patients","Single dose 93 kBq/kg, n = 5",2
same,"Haemoglobin, CTC Grade 1: number of patients","Single dose 93 kBq/kg, n = 5",2
same,"Haemoglobin, CTC Grade 2: number of patients","Single dose 93 kBq/kg, n = 5",1
same,"Neutrophile, CTC Grade 0: number of patients","Single dose 93 kBq/kg, n = 5",3
same,"Neutrophile, CTC Grade 1: number of patients","Single dose 93 kBq/kg, n = 5",1
same,"Neutrophile, CTC Grade 2: number of patients","Single dose 93 kBq/kg, n = 5",1
same,"Neutrophile, CTC Grade 3: number of patients","Single dose 93 kBq/kg, n = 5",0
same,"Platelets, CTC Grade 0: number of patients","Single dose 93 kBq/kg, n = 5",5
same,"Platelets, CTC Grade 1: number of patients","Single dose 93 kBq/kg, n = 5",0
same,"W B C, CTC Grade 0: number of patients","Single dose 93 kBq/kg, n = 5",4
same,"W B C, CTC Grade 1: number of patients","Single dose 93 kBq/kg, n = 5",0
same,"W B C, CTC Grade 2: number of patients","Single dose 93 kBq/kg, n = 5",1
same,"W B C, CTC Grade 3: number of patients","Single dose 93 kBq/kg, n = 5",0
same,"Haemoglobin, CTC Grade 0: number of patients","Single dose 163 kBq/kg, n = 5",4
same,"Haemoglobin, CTC Grade 1: number of patients","Single dose 163 kBq/kg, n = 5",0
same,"Haemoglobin, CTC Grade 2: number of patients","Single dose 163 kBq/kg, n = 5",1
same,"Neutrophile, CTC Grade 0: number of patients","Single dose 163 kBq/kg, n = 5",3
same,"Neutrophile, CTC Grade 1: number of patients","Single dose 163 kBq/kg, n = 5",0
same,"Neutrophile, CTC Grade 2: number of patients","Single dose 163 kBq/kg, n = 5",1
same,"Neutrophile, CTC Grade 3: number of patients","Single dose 163 kBq/kg, n = 5",1
same,"Platelets, CTC Grade 0: number of patients","Single dose 163 kBq/kg, n = 5",4
same,"Platelets, CTC Grade 1: number of patients","Single dose 163 kBq/kg, n = 5",1
same,"W B C, CTC Grade 0: number of patients","Single dose 163 kBq/kg, n = 5",3
same,"W B C, CTC Grade 1: number of patients","Single dose 163 kBq/kg, n = 5",0
same,"W B C, CTC Grade 2: number of patients","Single dose 163 kBq/kg, n = 5",1
same,"W B C, CTC Grade 3: number of patients","Single dose 163 kBq/kg, n = 5",1
same,"Haemoglobin, CTC Grade 0: number of patients","Single dose 213 kBq/kg, n = 5",2
same,"Haemoglobin, CTC Grade 1: number of patients","Single dose 213 kBq/kg, n = 5",2
same,"Haemoglobin, CTC Grade 2: number of patients","Single dose 213 kBq/kg, n = 5",1
same,"Neutrophile, CTC Grade 0: number of patients","Single dose 213 kBq/kg, n = 5",2
same,"Neutrophile, CTC Grade 1: number of patients","Single dose 213 kBq/kg, n = 5",1
same,"Neutrophile, CTC Grade 2: number of patients","Single dose 213 kBq/kg, n = 5",2
same,"Neutrophile, CTC Grade 3: number of patients","Single dose 213 kBq/kg, n = 5",0
same,"Platelets, CTC Grade 0: number of patients","Single dose 213 kBq/kg, n = 5",5
same,"Platelets, CTC Grade 1: number of patients","Single dose 213 kBq/kg, n = 5",0
same,"W B C, CTC Grade 0: number of patients","Single dose 213 kBq/kg, n = 5",2
same,"W B C, CTC Grade 1: number of patients","Single dose 213 kBq/kg, n = 5",0
same,"W B C, CTC Grade 2: number of patients","Single dose 213 kBq/kg, n = 5",2
same,"W B C, CTC Grade 3: number of patients","Single dose 213 kBq/kg, n = 5",1
same,"Haemoglobin, CTC Grade 0: number of patients","Single dose 250 kBq/kg, n = 5",2
same,"Haemoglobin, CTC Grade 1: number of patients","Single dose 250 kBq/kg, n = 5",3
same,"Haemoglobin, CTC Grade 2: number of patients","Single dose 250 kBq/kg, n = 5",0
same,"Neutrophile, CTC Grade 0: number of patients","Single dose 250 kBq/kg, n = 5",2
same,"Neutrophile, CTC Grade 1: number of patients","Single dose 250 kBq/kg, n = 5",0
same,"Neutrophile, CTC Grade 2: number of patients","Single dose 250 kBq/kg, n = 5",2
same,"Neutrophile, CTC Grade 3: number of patients","Single dose 250 kBq/kg, n = 5",1
same,"Platelets, CTC Grade 0: number of patients","Single dose 250 kBq/kg, n = 5",2
same,"Platelets, CTC Grade 1: number of patients","Single dose 250 kBq/kg, n = 5",3
same,"W B C, CTC Grade 0: number of patients","Single dose 250 kBq/kg, n = 5",2
same,"W B C, CTC Grade 1: number of patients","Single dose 250 kBq/kg, n = 5",0
same,"W B C, CTC Grade 2: number of patients","Single dose 250 kBq/kg, n = 5",2
same,"W B C, CTC Grade 3: number of patients","Single dose 250 kBq/kg, n = 5",1
same,"Reversible diarrhoea, grades 1 and 2, share of patients","all dose groups, total",approximately 50%
same,Dose-limiting toxicity,"dose escalating part, single dose 46 to 250 kBq/kg",not observed
same,"Thrombocytes, toxicity grade",even at the two highest dose levels,1 grade
same,"Vomiting, number of patients",highest dose group,four
same,"Nausea, number of patients",highest dose level,four
same,"Neutropenia of maximum grade 3, number of patients",single injection trial,two
same,"Reversible myelosuppression, nadir after injection","single injection, recovery during the follow-up period",2-3 weeks
same,Additional toxicity related to the repetition of the treatment,three patients in the 50×5 schedule,did not experience any additional toxicity

# Reference: patent US20060228297A1, “Thorium-227 for use in radiotherapy of soft tissue disease” (priority 2003, published 2006)
